# From PubChem BioAssay (NCI)
#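 Compound exposure: 48 hours, 5 concentrations, 96-well plates. GI50: concentration for 50% inhibition of growth. TGI: concentration producing complete growth inhibition.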
# How the values were obtained:
# Experiment in all cases: NCI anticancer screen, dose series, 48 h
# NCI/ADR-RES ovarian = system: NCI/ADR-RES ovarian
# SK-MEL-5 melanoma = system: SK-MEL-5 melanoma
# 786-0 renal = system: 786-0 renal
# NCI-H226 lung = system: NCI-H226 lung
# MDA-MB-435 = system: MDA-MB-435
# SK-MEL-28 melanoma = system: SK-MEL-28 melanoma
# SNB-75 CNS = system: SNB-75 CNS
# SW-620 colon = system: SW-620 colon
# KM12 colon = system: KM12 colon
# UO-31 renal = system: UO-31 renal
# A498 renal = system: A498 renal
# OVCAR-3 ovarian = system: OVCAR-3 ovarian
# HS 578T breast = system: HS 578T breast
# LOX IMVI melanoma = system: LOX IMVI melanoma
# SN12C renal = system: SN12C renal
# T-47D breast = system: T-47D breast
# RXF 393 renal = system: RXF 393 renal
# UACC-62 melanoma = system: UACC-62 melanoma
# HL-60(TB) leukemia = system: HL-60(TB) leukemia
# SNB-19 CNS = system: SNB-19 CNS
# MCF7 breast = system: MCF7 breast
# MALME-3M melanoma = system: MALME-3M melanoma
# ACHN renal = system: ACHN renal
# A549 NSCLC = system: A549 NSCLC
# SF-268 CNS = system: SF-268 CNS
# K-562 leukemia = system: K-562 leukemia
# IGROV1 ovarian = system: IGROV1 ovarian
# SK-OV-3 ovarian = system: SK-OV-3 ovarian
# SR leukemia = system: SR leukemia
# CCRF-CEM leukemia = system: CCRF-CEM leukemia
# MOLT-4 leukemia = system: MOLT-4 leukemia
# NCI-H23 lung = system: NCI-H23 lung
# EKVX NSCLC = system: EKVX NSCLC
# M14 melanoma = system: M14 melanoma
# CAKI-1 renal = system: CAKI-1 renal
# SF-539 CNS = system: SF-539 CNS
# NCI-H460 lung = system: NCI-H460 lung
# HOP-92 NSCLC = system: HOP-92 NSCLC
# HT29 colon = system: HT29 colon
# PC-3 prostate = system: PC-3 prostate
# NCI-H522 lung = system: NCI-H522 lung
# HCT-116 colon = system: HCT-116 colon
# BT-549 breast = system: BT-549 breast
# RPMI-8226 leukemia = system: RPMI-8226 leukemia
# COLO 205 colon = system: COLO 205 colon
# SF-295 CNS = system: SF-295 CNS
# OVCAR-8 ovarian = system: OVCAR-8 ovarian
# TK-10 renal = system: TK-10 renal
# UACC-257 melanoma = system: UACC-257 melanoma
# MDA-MB-231 breast = system: MDA-MB-231 breast
# SK-MEL-2 melanoma = system: SK-MEL-2 melanoma
# DU-145 prostate = system: DU-145 prostate
# OVCAR-4 ovarian = system: OVCAR-4 ovarian
# U251 CNS = system: U251 CNS
# OVCAR-5 ovarian = system: OVCAR-5 ovarian
# HCC-2998 colon = system: HCC-2998 colon
# HOP-62 NSCLC = system: HOP-62 NSCLC
# HCT-15 colon = system: HCT-15 colon
structure (smiles),measurement,setting,value
CCc1c2c(nc3ccc(OC(=O)NCc4ccc(B5OC(C)(C)C(C)(C)O5)cc4)cc13)-c1cc3c(c(=O)n1C2)COC(=O)[C@]3(O)CC,GI50,NCI/ADR-RES ovarian,51.1 nM
same,TGI,NCI/ADR-RES ovarian,> 100000 nM
same,GI50,SK-MEL-5 melanoma,35.6 nM
same,TGI,SK-MEL-5 melanoma,301 nM
same,GI50,786-0 renal,13.6 nM
same,TGI,786-0 renal,346 nM
same,GI50,NCI-H226 lung,21.6 nM
same,TGI,NCI-H226 lung,635 nM
same,GI50,MDA-MB-435,107 nM
same,TGI,MDA-MB-435,2700 nM
same,GI50,SK-MEL-28 melanoma,577 nM
same,TGI,SK-MEL-28 melanoma,8900 nM
same,GI50,SNB-75 CNS,19.9 nM
same,TGI,SNB-75 CNS,448 nM
same,GI50,SW-620 colon,22.7 nM
same,GI50,KM12 colon,167 nM
same,TGI,KM12 colon,> 30100 nM
same,GI50,UO-31 renal,27.4 nM
same,TGI,UO-31 renal,294 nM
same,GI50,A498 renal,14.1 nM
same,TGI,A498 renal,175 nM
same,GI50,OVCAR-3 ovarian,148 nM
same,TGI,OVCAR-3 ovarian,3200 nM
same,GI50,HS 578T breast,1140 nM
same,TGI,HS 578T breast,15900 nM
same,GI50,LOX IMVI melanoma,< 10 nM
same,TGI,LOX IMVI melanoma,167 nM
same,GI50,SN12C renal,< 10 nM
same,TGI,SN12C renal,> 100000 nM
same,GI50,T-47D breast,< 10 nM
same,TGI,T-47D breast,> 100000 nM
same,GI50,RXF 393 renal,27.9 nM
same,TGI,RXF 393 renal,322 nM
same,GI50,UACC-62 melanoma,< 10 nM
same,TGI,UACC-62 melanoma,220 nM
same,GI50,HL-60(TB) leukemia,< 19.1 nM
same,GI50,SNB-19 CNS,< 10 nM
same,TGI,SNB-19 CNS,> 100000 nM
same,GI50,MCF7 breast,< 10 nM
same,TGI,MCF7 breast,> 100000 nM
same,GI50,MALME-3M melanoma,74.1 nM
same,TGI,MALME-3M melanoma,1310 nM
same,GI50,ACHN renal,20.2 nM
same,TGI,ACHN renal,1130 nM
same,GI50,A549 NSCLC,82.5 nM
same,TGI,A549 NSCLC,8090 nM
same,GI50,SF-268 CNS,< 10 nM
same,TGI,SF-268 CNS,4040 nM
same,GI50,K-562 leukemia,34.3 nM
same,TGI,K-562 leukemia,> 100000 nM
same,GI50,IGROV1 ovarian,214 nM
same,TGI,IGROV1 ovarian,> 42700 nM
same,GI50,SK-OV-3 ovarian,28.6 nM
same,TGI,SK-OV-3 ovarian,8180 nM
same,GI50,SR leukemia,< 10 nM
same,TGI,SR leukemia,> 100000 nM
same,GI50,CCRF-CEM leukemia,< 10 nM
same,TGI,CCRF-CEM leukemia,> 100000 nM
same,GI50,MOLT-4 leukemia,< 10 nM
same,TGI,MOLT-4 leukemia,> 100000 nM
same,GI50,NCI-H23 lung,18.1 nM
same,TGI,NCI-H23 lung,771 nM
same,GI50,EKVX NSCLC,758 nM
same,TGI,EKVX NSCLC,> 81900 nM
same,GI50,M14 melanoma,< 10 nM
same,TGI,M14 melanoma,104 nM
same,GI50,CAKI-1 renal,16.2 nM
same,TGI,CAKI-1 renal,1100 nM
same,GI50,SF-539 CNS,< 10 nM
same,TGI,SF-539 CNS,77.1 nM
same,GI50,NCI-H460 lung,14.1 nM
same,TGI,NCI-H460 lung,343 nM
same,GI50,HOP-92 NSCLC,42 nM
same,TGI,HOP-92 NSCLC,2470 nM
same,GI50,HT29 colon,120 nM
same,TGI,HT29 colon,> 21200 nM
same,GI50,PC-3 prostate,144 nM
same,TGI,PC-3 prostate,> 100000 nM
same,GI50,NCI-H522 lung,16.7 nM
same,TGI,NCI-H522 lung,3870 nM
same,GI50,HCT-116 colon,< 10.8 nM
same,TGI,HCT-116 colon,> 100000 nM
same,GI50,BT-549 breast,52 nM
same,TGI,BT-549 breast,2740 nM
same,GI50,RPMI-8226 leukemia,270 nM
same,TGI,RPMI-8226 leukemia,3480 nM
same,GI50,COLO 205 colon,73.4 nM
same,TGI,COLO 205 colon,11000 nM
same,GI50,SF-295 CNS,16 nM
same,TGI,SF-295 CNS,3400 nM
same,GI50,OVCAR-8 ovarian,22.8 nM
same,TGI,OVCAR-8 ovarian,> 100000 nM
same,GI50,TK-10 renal,1600 nM
same,TGI,TK-10 renal,> 91400 nM
same,GI50,UACC-257 melanoma,226 nM
same,TGI,UACC-257 melanoma,3360 nM
same,GI50,MDA-MB-231 breast,1590 nM
same,TGI,MDA-MB-231 breast,> 84100 nM
same,GI50,SK-MEL-2 melanoma,790 nM
same,TGI,SK-MEL-2 melanoma,> 22600 nM
same,GI50,DU-145 prostate,16.8 nM
same,TGI,DU-145 prostate,> 100000 nM
same,GI50,OVCAR-4 ovarian,392 nM
same,TGI,OVCAR-4 ovarian,63700 nM
same,GI50,U251 CNS,< 10 nM
same,TGI,U251 CNS,> 100000 nM
same,GI50,OVCAR-5 ovarian,287 nM
same,TGI,OVCAR-5 ovarian,> 24300 nM
same,GI50,HCC-2998 colon,250 nM
same,TGI,HCC-2998 colon,3560 nM
same,GI50,HOP-62 NSCLC,< 10 nM
same,TGI,HOP-62 NSCLC,2920 nM
same,GI50,HCT-15 colon,277 nM
same,TGI,HCT-15 colon,> 100000 nM
